The values that follow come from ChEMBL document CHEMBL5537136 (J Med Chem, 2024).

For orientation: inhibition means the percentage by which the read-out fell short of the control. One may read the IC50 as the point on the concentration scale where inhibition reaches its midpoint. Higher therefore signals a need for much substance. As usually defined, the clearance is a measure of how efficiently the substance is removed, as volume per time. A low value points to inefficient removal. In general, bioavailability refers to the share of a dose that reaches the circulation, judged against a reference dose that is usually intravenous. Low readings indicate poor availability, high ones good availability. The Papp A→B is the apparent permeability from the apical to the basolateral side of a cell layer. Higher therefore signals ready permeation. Usually Papp B→A stands for the apparent permeability from the basolateral to the apical side of a cell layer.

Calls of active or inactive are those of the source. The rule behind the calls is not given here.

Data set [1] has as its target T1, Protein mono-ADP-ribosyltransferase TIPARP (Homo sapiens) (UniProt Q7Z3E1).
T1 sequence (whole entry): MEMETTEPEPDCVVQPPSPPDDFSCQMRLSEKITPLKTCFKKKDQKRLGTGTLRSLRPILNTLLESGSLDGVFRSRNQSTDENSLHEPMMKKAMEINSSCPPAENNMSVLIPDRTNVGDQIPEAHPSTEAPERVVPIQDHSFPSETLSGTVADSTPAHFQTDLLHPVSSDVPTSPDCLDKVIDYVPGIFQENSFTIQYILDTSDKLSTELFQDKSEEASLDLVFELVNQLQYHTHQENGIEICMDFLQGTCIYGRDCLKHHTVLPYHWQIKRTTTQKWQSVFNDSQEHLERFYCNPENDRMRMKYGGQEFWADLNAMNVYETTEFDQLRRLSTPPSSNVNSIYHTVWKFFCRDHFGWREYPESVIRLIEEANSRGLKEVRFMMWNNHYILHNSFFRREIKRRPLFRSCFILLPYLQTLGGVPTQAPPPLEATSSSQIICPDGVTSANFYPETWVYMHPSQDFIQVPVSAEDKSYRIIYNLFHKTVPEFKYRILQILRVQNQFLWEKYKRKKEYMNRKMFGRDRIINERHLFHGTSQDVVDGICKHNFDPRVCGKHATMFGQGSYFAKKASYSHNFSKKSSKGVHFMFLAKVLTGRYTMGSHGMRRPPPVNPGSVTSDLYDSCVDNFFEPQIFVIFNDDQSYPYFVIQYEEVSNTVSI
The data set is described as follows: Inhibition of PARP7 (unknown origin) at 100 nM measured after 1 hr incubation by microplate reader assay relative to control.

Data set [2] deals with T2, Protein mono-ADP-ribosyltransferase TIPARP (Homo sapiens, UniProt Q7Z3E1).
T2 sequence (Q7Z3E1 whole entry): T1 sequence (whole entry)
Briefly: Inhibition of PARP7 (unknown origin) measured after 1 hr incubation by microplate reader assay.

Data set [3] has as its target Poly [ADP-ribose] polymerase 1 (Homo sapiens, UniProt P09874). Briefly: Inhibition of PARP1 (unknown origin) measured after 1 hr incubation by microplate reader assay.
Data set [4] can be described thus: Clearance in ICR mouse. It is filed as ADME. Particulars: in vivo.
A short description of data set [5]: Oral bioavailability in ICR mouse. Particulars: in vivo. Format: ADME, organism-based.
Data set [6] in a line: Antiproliferative activity against mouse AML12 cells measured after 6 days incubation by MTT assay. Format: toxicity, cell-based.
Data set [7] in a line: Permeability across apical to basolateral side in human Caco-2 cells. It is filed as ADME, cell-based. A general note: Caco-2 monolayers are a common model of the intestinal barrier.
Data set [8] in a line: Permeability across basolateral to apical side in human Caco-2 cells. Format: ADME, cell-based.
A further data set deals with Cytochrome P450 2C9 (Homo sapiens, UniProt P11712). The data set is described as follows: Inhibition of CYP2C9 (unknown origin). It is filed as ADME.
Another data set addresses Cytochrome P450 2D6 (Homo sapiens, UniProt P10635). Briefly: Inhibition of CYP2D6 (unknown origin). Format: ADME.
The next data set concerns the target CYP3A4/5 (Homo sapiens, UniProt P08684+P20815). The data set is described as follows: Inhibition of CYP3A4/5 (unknown origin). It is filed as ADME, protein assay.
In data set [9] the test system is CT26. The data set is described as follows: Antitumor activity in immunocompetent mouse CT26 cell bearing mouse model assessed as tumor growth inhibition at 100 mg/kg, IG treated twice a day measured after 14 days relative to control. It is filed as functional. Particulars: CT26, po, 336 h, time 14 day, read-out: TGI.
The subject of data set [10] is CT26. The data set is described as follows: Antitumor activity in immunocompetent mouse CT26 cell bearing Balb/c mouse model assessed as induction of IFN-beta mRNA expression in tumor tissue at 100 mg/kg, IG treated twice a day measured after 14 days by quantitative real-time PCR analysis. Format: functional, organism-based. The following applies: time 14.0 day.
Data set [11] has as its system CT26. Briefly: Antitumor activity against mouse CT26 cells implanted in immunodeficient Balb/c mouse assessed as inhibition of tumor growth at 25 mg/kg, ip qod measured after 10 days relative to control. Particulars: CT26, 240 h, time 10 day, read-out: TGI. It is filed as functional.

Sequence of Poly [ADP-ribose] polymerase 1 (P09874 whole entry): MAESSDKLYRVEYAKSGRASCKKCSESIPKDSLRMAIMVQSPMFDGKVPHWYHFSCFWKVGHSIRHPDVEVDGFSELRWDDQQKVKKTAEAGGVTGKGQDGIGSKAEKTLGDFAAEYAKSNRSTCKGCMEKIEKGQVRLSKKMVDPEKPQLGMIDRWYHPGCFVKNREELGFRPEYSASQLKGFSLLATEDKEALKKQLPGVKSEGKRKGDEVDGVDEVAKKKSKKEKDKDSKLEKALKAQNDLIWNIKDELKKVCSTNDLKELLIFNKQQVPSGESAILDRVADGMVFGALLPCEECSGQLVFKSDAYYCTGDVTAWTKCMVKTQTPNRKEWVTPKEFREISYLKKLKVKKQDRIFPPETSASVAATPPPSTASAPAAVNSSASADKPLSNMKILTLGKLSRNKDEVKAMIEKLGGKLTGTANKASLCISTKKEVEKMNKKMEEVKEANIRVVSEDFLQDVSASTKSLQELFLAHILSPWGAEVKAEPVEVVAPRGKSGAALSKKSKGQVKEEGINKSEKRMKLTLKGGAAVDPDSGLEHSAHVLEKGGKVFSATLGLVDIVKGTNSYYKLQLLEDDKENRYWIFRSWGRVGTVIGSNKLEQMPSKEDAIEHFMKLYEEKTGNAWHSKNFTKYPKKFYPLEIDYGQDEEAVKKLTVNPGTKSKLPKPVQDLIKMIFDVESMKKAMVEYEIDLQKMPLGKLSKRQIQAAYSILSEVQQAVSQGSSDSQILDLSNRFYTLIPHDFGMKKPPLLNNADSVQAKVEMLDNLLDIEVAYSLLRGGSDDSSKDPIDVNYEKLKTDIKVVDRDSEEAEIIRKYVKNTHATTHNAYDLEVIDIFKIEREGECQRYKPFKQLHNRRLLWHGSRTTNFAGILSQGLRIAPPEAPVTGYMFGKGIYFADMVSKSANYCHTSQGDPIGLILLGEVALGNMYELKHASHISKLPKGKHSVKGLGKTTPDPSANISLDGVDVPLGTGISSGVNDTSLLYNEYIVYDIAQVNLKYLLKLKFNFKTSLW
Sequence of Cytochrome P450 2D6 (P10635 whole entry): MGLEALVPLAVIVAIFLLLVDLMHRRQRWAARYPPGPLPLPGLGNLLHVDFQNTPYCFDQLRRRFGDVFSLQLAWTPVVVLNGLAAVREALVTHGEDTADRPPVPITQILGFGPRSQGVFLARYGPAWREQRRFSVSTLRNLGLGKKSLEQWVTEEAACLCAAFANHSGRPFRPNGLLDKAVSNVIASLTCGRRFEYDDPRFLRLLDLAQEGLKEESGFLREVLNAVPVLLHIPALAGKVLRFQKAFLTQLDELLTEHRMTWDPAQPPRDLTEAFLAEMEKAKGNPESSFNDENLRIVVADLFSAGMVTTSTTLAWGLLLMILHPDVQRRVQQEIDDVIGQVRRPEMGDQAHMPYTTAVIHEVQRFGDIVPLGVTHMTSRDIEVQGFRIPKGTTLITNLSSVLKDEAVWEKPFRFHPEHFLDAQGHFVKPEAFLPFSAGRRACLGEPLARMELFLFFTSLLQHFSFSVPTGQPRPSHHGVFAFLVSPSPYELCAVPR
Sequence of Cytochrome P450 2C9 (P11712 whole entry): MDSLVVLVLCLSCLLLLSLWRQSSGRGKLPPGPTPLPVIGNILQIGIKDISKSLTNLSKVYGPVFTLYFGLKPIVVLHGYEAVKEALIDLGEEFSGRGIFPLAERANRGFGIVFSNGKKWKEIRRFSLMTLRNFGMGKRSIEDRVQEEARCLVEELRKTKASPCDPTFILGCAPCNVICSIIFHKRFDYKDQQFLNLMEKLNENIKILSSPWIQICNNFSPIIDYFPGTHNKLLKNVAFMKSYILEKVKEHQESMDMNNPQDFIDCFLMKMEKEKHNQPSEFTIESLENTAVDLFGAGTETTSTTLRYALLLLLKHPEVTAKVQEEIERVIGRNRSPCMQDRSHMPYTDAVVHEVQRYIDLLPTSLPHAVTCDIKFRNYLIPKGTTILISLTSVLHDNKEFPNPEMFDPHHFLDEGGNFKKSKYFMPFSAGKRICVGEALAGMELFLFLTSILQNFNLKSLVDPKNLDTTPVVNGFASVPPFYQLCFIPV

`NC(=O)c1cccc2cn(CC(=O)N3CCN(c4ccc5c(c4)OC(F)(F)O5)CC3)nc12`: the inhibition in [1] came out at 17.5%.

As to `Cc1cnc(N2CCN(C(=O)C(C)n3cc4cccc(C(N)=O)c4n3)CC2)nc1` (stereo not drawn), the inhibition in data set [1] stood at 79.5%. Moreover, in data set [2], it took 62 nM to reach half-maximal inhibition (IC50).

In turn, `CC(C(=O)N1CCN(c2ccc3c(c2)OC(F)(F)O3)CC1)n1cc2cccc(C(N)=O)c2n1` (stereo not drawn) came in with an inhibition in data set [1] of 13%.

The molecule `NC(=O)c1cccc2cn(CC(=O)N3CCN(c4ccc(C(F)(F)F)cn4)CC3)nc12` gave an inhibition in data set [1] of 68.7%. The molecule also gave an IC50 in [3] above 1300 nM.

As to `NC(=O)c1cccc2cn(C(F)C(=O)N3CCN(c4ncc(C(F)(F)F)cn4)CC3)nc12` (stereo not drawn), the inhibition in data set [1] is 63%. Besides, the IC50 in data set [2] stood at 122 nM.

Regarding `NC(=O)c1cccc2cn(CC(=O)N3CCN(c4ncc(C(F)(F)F)cn4)CC3)nc12`, the inhibition in data set [1] is 89%. The IC50 was 46 nM in data set [2] and above 1300 nM in [3].

In [4], `C[C@@H](COCCC(=O)N1CCN(c2ncc(C(F)(F)F)cn2)CC1)Nc1cn[nH]c(=O)c1C(F)(F)F` [ATAMPARIB] had a clearance of 67 mL/min/kg. The bioavailability in data set [5] was 25.7%. This molecule came in with an IC50 at 6 days in data set [6] above 50000 nM. The Papp A→B in [7] came out at 4.1 ×10⁻⁶ cm/s. In data set [8], this molecule registered a Papp B→A of 24 ×10⁻⁶ cm/s. Moreover, the IC50 against Cytochrome P450 2C9, against Cytochrome P450 2D6 and at CYP3A4/5 was above 30000 nM each time. Besides, the inhibition in vivo at 100 mg/kg in the data set on CT26 [9] worked out at 4%. Moreover, the outcome in the data set on CT26 [10] was inactive.

Consider `CC(C(=O)N1CCN(c2ccc(C(F)(F)F)cn2)CC1)n1cc2cccc(C(N)=O)c2n1` (stereo not drawn), for which the inhibition in data set [1] turned out to be 91.2%. In [2], this molecule showed an IC50 of 20 nM.

In data set [1], `NC(=O)c1cccc2cn(CCC(=O)N3CCN(c4ncc(C(F)(F)F)cn4)CC3)nc12` yielded an inhibition of 33.9%.

In turn, `CC(C(=O)N1CCN(c2ncc(Br)cn2)CC1)n1cc2cccc(C(N)=O)c2n1` (stereo not drawn) registered an inhibition in data set [1] of 85.6%. In [2], this molecule yielded an IC50 of 22.3 nM.

In data set [1], `CC(C(=O)N1CCN(c2ncc(F)cn2)CC1)n1cc2cccc(C(N)=O)c2n1` (stereo not drawn) came in with an inhibition of 64.5%.

As to `O=c1[nH]cc(F)c(=O)[nH]1` [FLUOROURACIL], in the data set on CT26 [11], the inhibition in vivo at 25 mg/kg turned out to be 65%.

Take `CC(C(=O)N1CCN(c2ncc(S(C)(=O)=O)cn2)CC1)n1cc2cccc(C(N)=O)c2n1` (stereo not drawn): the inhibition in data set [1] was 25.6%.

As to `CC(C(=O)N1CCN(c2ncc(C#N)cn2)CC1)n1cc2cccc(C(N)=O)c2n1` (stereo not drawn), the inhibition in data set [1] came to 71%.

In data set [1], `COc1cnc(N2CCN(C(=O)C(C)n3cc4cccc(C(N)=O)c4n3)CC2)nc1` (stereo not drawn) had an inhibition of 65.5%.

Consider `CC(C(=O)N1CCN(c2ncccn2)CC1)n1cc2cccc(C(N)=O)c2n1` (stereo not drawn), for which the inhibition in data set [1] amounted to 19.7%.

Molecule `CCC(C(=O)N1CCN(c2ncc(C(F)(F)F)cn2)CC1)n1cc2cccc(C(N)=O)c2n1` (stereo not drawn) gave an inhibition in [1] of 63%.
